{
  "source": "patent US20230011571A1",
  "about": "“SMALL MOLECULE FURIN INHIBITORS FOR TREATING INFECTIOUS DISEASES” (BP Asset V, Inc., priority 2019, published 2023)",
  "assay_type_in_all_cases": "cell-based",
  "key": {"dengue virus (DENV)": {"system": "dengue virus (DENV)", "experiment": "microbe, parasite or virus in culture", "conditions": "Dengue virus, Vero, 120 h, read-out: Percent viral inhibition DENY"}, "[1]": {"system": "Chikungunya virus (CHIKV)", "experiment": "microbe, parasite or virus in culture", "conditions": "Chikungunya virus, Vero, 48 h, read-out: Percent viral inhibition CHKV"}, "Marburg virus (MARV)": {"system": "Marburg virus (MARV)", "experiment": "organism not typed", "conditions": "Vero, 72 h, read-out: Percent viral inhibition MARV"}},
  "data": [
    {"smiles": "CN1CCN(c2ccc(Oc3cc(CN4CCC(CC(=O)O)CC4)cc(-c4cc(Cl)cc(Cl)c4)n3)nn2)CC1", "note": "[Example 359, 2-(1-((2-(3,5-dichlorophenyl)-6-((6-(4-methylpiperazin-1-yl)pyridazin-3-yl)oxy)pyridin-4-yl)methyl)piperidin-4-yl)acetic acid]", "values": [
      {"measurement": "inhibition at 1 µM", "setting": "dengue virus (DENV)", "result": 45.3, "unit": "%"},
      {"measurement": "inhibition at 1 µM", "setting": "[1]", "result": 28.9, "unit": "%"},
      {"measurement": "inhibition at 1 µM", "setting": "Marburg virus (MARV)", "result": 62, "unit": "%"}
    ]},
    {"smiles": "CN1CCN(c2ccc(Oc3cc(CN4CCC(CCO)CC4)cc(-c4cc(Cl)cc(Cl)c4)n3)nn2)CC1", "note": "[Example 360, 2-(1-((2-(3,5-dichlorophenyl)-6-((6-(4-methylpiperazin-1-yl)pyridazin-3-yl)oxy)pyridin-4-yl)methyl)piperidin-4-yl)ethanol]", "values": [
      {"measurement": "inhibition at 1 µM", "setting": "dengue virus (DENV)", "result": 2.83, "unit": "%"},
      {"measurement": "inhibition at 1 µM", "setting": "[1]", "result": 0, "unit": "%"},
      {"measurement": "inhibition at 1 µM", "setting": "Marburg virus (MARV)", "result": 3.44, "unit": "%"}
    ]},
    {"smiles": "CN1CCN(c2ccc(Oc3cc(CN4CC[C@@H]5[C@H](CC4)[C@H]5C(=O)O)cc(-c4cc(Cl)cc(Cl)c4)n3)nn2)CC1", "note": "[Example 361, (1R,7S,8r)-4-((2-(3,5-dichlorophenyl)-6-((6-(4-methylpiperazin-1-yl)pyridazin-3-yl)oxy)pyridin-4-yl)methyl)-4-azabicyclo[5.1.0]octane-8-carboxylic acid]", "values": [
      {"measurement": "inhibition at 1 µM", "setting": "dengue virus (DENV)", "result": 12.1, "unit": "%"},
      {"measurement": "inhibition at 1 µM", "setting": "[1]", "result": 26.6, "unit": "%"},
      {"measurement": "inhibition at 1 µM", "setting": "Marburg virus (MARV)", "result": 42, "unit": "%"}
    ]},
    {"smiles": "CN1CCCN(c2ccc(Oc3cc(CN4CC[C@@H]5[C@H](CC4)[C@H]5C(=O)O)cc(-c4cc(Cl)cc(Cl)c4)n3)nn2)CC1", "note": "[Example 362, (1R,7S,8r)-4-((2-(3,5-dichlorophenyl)-6-((6-(4-methyl-1,4-diazepan-1-yl)pyridazin-3-yl)oxy)pyridin-4-yl)methyl)-4-azabicyclo[5.1.0]octane-8-carboxylic acid]", "values": [
      {"measurement": "inhibition at 1 µM", "setting": "dengue virus (DENV)", "result": 50.2, "unit": "%"},
      {"measurement": "inhibition at 1 µM", "setting": "[1]", "result": 14.9, "unit": "%"},
      {"measurement": "inhibition at 1 µM", "setting": "Marburg virus (MARV)", "result": 50.9, "unit": "%"}
    ]},
    {"smiles": "CC(=O)NCC1CCN(Cc2cc(Oc3ccc(N4CCN(CC(C)C(=O)O)CC4)nn3)nc(-c3cc(Cl)cc(Cl)c3)c2)CC1", "note": "(stereo not drawn) [Example 363, 3-(4-(6-((4-((4-(acetamidomethyl)piperidin-1-yl)methyl)-6-(3,5-dichlorophenyl)pyridin-2-yl)oxy)pyridazin-3-yl)piperazin-1-yl)-2-methylpropanoic acid]", "values": [
      {"measurement": "inhibition at 1 µM", "setting": "dengue virus (DENV)", "result": 0, "unit": "%"},
      {"measurement": "inhibition at 1 µM", "setting": "[1]", "result": 0, "unit": "%"},
      {"measurement": "inhibition at 1 µM", "setting": "Marburg virus (MARV)", "result": 2.8, "unit": "%"}
    ]},
    {"smiles": "C[C@H](CC1CCN(Cc2cc(Oc3ccc(N4CCN(C)CC4)nn3)nc(-c3cc(Cl)cc(Cl)c3)c2)CC1)C(=O)O", "note": "[Example 364, (R)-3-(1-((2-(3,5-dichlorophenyl)-6-((6-(4-methylpiperazin-1-yl)pyridazin-3-yl)oxy)pyridin-4-yl)methyl)piperidin-4-yl)-2-methylpropanoic acid]", "values": [
      {"measurement": "inhibition at 1 µM", "setting": "dengue virus (DENV)", "result": 40, "unit": "%"},
      {"measurement": "inhibition at 1 µM", "setting": "[1]", "result": 31.4, "unit": "%"},
      {"measurement": "inhibition at 1 µM", "setting": "Marburg virus (MARV)", "result": 47.6, "unit": "%"}
    ]},
    {"smiles": "C[C@@H](CC1CCN(Cc2cc(Oc3ccc(N4CCN(C)CC4)nn3)nc(-c3cc(Cl)cc(Cl)c3)c2)CC1)C(=O)O", "note": "[Example 365, (S)-3-(1-((2-(3,5-dichlorophenyl)-6-((6-(4-methylpiperazin-1-yl)pyridazin-3-yl)oxy)pyridin-4-yl)methyl)piperidin-4-yl)-2-methylpropanoic acid]", "values": [
      {"measurement": "inhibition at 1 µM", "setting": "dengue virus (DENV)", "result": 32.4, "unit": "%"},
      {"measurement": "inhibition at 1 µM", "setting": "[1]", "result": 0, "unit": "%"},
      {"measurement": "inhibition at 1 µM", "setting": "Marburg virus (MARV)", "result": 17.4, "unit": "%"}
    ]},
    {"smiles": "CCN1C[C@@H]2C[C@H]1CN2c1ccc(Oc2cc(CN3CCC(CC(=O)O)CC3)cc(-c3cc(Cl)cc(Cl)c3)n2)nn1", "note": "[Example 366, 2-(1-((2-(3,5-dichlorophenyl)-6-((6-((1S,4S)-5-ethyl-2,5-diazabicyclo[2.2.1]heptan-2-yl)pyridazin-3-yl)oxy)pyridin-4-yl)methyl)piperidin-4-yl)acetic acid]", "values": [
      {"measurement": "inhibition at 1 µM", "setting": "dengue virus (DENV)", "result": 48.5, "unit": "%"},
      {"measurement": "inhibition at 1 µM", "setting": "[1]", "result": 6.17, "unit": "%"},
      {"measurement": "inhibition at 1 µM", "setting": "Marburg virus (MARV)", "result": 23.1, "unit": "%"}
    ]},
    {"smiles": "CC(=O)N[C@H]1[C@@H]2CCN(Cc3cc(Oc4cnc(N5CCN(CCC(=O)O)CC5)nc4)nc(-c4cc(Cl)cc(Cl)c4)c3)CC[C@@H]21", "note": "[Example 367, 3-(4-(5-((4-(((1R,7S,8r)-8-acetamido-4-azabicyclo[5.1.0]octan-4-yl)methyl)-6-(3,5-dichlorophenyl)pyridin-2-yl)oxy)pyrimidin-2-yl)piperazin-1-yl)propanoic acid]", "values": [
      {"measurement": "inhibition at 1 µM", "setting": "dengue virus (DENV)", "result": 15, "unit": "%"},
      {"measurement": "inhibition at 1 µM", "setting": "[1]", "result": 27.4, "unit": "%"},
      {"measurement": "inhibition at 1 µM", "setting": "Marburg virus (MARV)", "result": 54.7, "unit": "%"}
    ]},
    {"smiles": "COC(=O)C(C)CCN1CCN(c2ncc(Oc3cc(CN4CCC(CNC(C)=O)CC4)cc(-c4cc(Cl)cc(Cl)c4)n3)cn2)CC1", "note": "(stereo not drawn) [Example 368, methyl4-(4-(5-((4-((4-(acetamidomethyl)piperidin-1-yl)methyl)-6-(3,5-dichlorophenyl)pyridin-2-yl)oxy)pyrimidin-2-yl)piperazin-1-yl)-2-methylbutanoate]", "values": [
      {"measurement": "inhibition at 1 µM", "setting": "dengue virus (DENV)", "result": 65.8, "unit": "%"},
      {"measurement": "inhibition at 1 µM", "setting": "[1]", "result": 32.5, "unit": "%"},
      {"measurement": "inhibition at 1 µM", "setting": "Marburg virus (MARV)", "result": 65.4, "unit": "%"}
    ]},
    {"smiles": "CC(=O)NCC1CCN(Cc2cc(Oc3cnc(N4CCN(CCC(C)(C)C(=O)O)CC4)nc3)nc(-c3cc(Cl)cc(Cl)c3)c2)CC1", "note": "[Example 370, 4-(4-(5-((4-((4-(acetamidomethyl)piperidin-1-yl)methyl)-6-(3,5-dichlorophenyl)pyridin-2-yl)oxy)pyrimidin-2-yl)piperazin-1-yl)-2,2-dimethylbutanoic acid]", "values": [
      {"measurement": "inhibition at 1 µM", "setting": "dengue virus (DENV)", "result": 41.7, "unit": "%"},
      {"measurement": "inhibition at 1 µM", "setting": "[1]", "result": 24.6, "unit": "%"},
      {"measurement": "inhibition at 1 µM", "setting": "Marburg virus (MARV)", "result": 57, "unit": "%"}
    ]},
    {"smiles": "CC(=O)NCC1CCN(Cc2cc(Oc3cnc(N4CCN(C(C)CCS(C)(=O)=O)CC4)nc3)nc(-c3cc(F)cc(Cl)c3)c2)CC1", "note": "(stereo not drawn) [Example 372, N-((1-((2-(3-chloro-5-fluorophenyl)-6-((2-(4-(4-(methylsulfonyl)butan-2-yl)piperazin-1-yl)pyrimidin-5-yl)oxy)pyridin-4-yl)methyl)piperidin-4-yl)methyl)acetamide]", "values": [
      {"measurement": "inhibition at 1 µM", "setting": "dengue virus (DENV)", "result": 81.8, "unit": "%"},
      {"measurement": "inhibition at 1 µM", "setting": "[1]", "result": 18.2, "unit": "%"},
      {"measurement": "inhibition at 1 µM", "setting": "Marburg virus (MARV)", "result": 45.3, "unit": "%"}
    ]},
    {"smiles": "CNC(=O)NCC1CCN(Cc2cc(Oc3cnc(N4CCN(C(C)CCS(C)(=O)=O)CC4)nc3)nc(-c3cc(F)cc(Cl)c3)c2)CC1", "note": "(stereo not drawn) [Example 373, 1-((1-((2-(3-chloro-5-fluorophenyl)-6-((2-(4-(4-(methylsulfonyl)butan-2-yl)piperazin-1-yl)pyrimidin-5-yl)oxy)pyridin-4-yl)methyl)piperidin-4-yl)methyl)-3-methylurea]", "values": [
      {"measurement": "inhibition at 1 µM", "setting": "dengue virus (DENV)", "result": 53.4, "unit": "%"},
      {"measurement": "inhibition at 1 µM", "setting": "[1]", "result": 28.8, "unit": "%"},
      {"measurement": "inhibition at 1 µM", "setting": "Marburg virus (MARV)", "result": 67.8, "unit": "%"}
    ]},
    {"smiles": "CN1CCCN(c2ncc(Oc3cc(CN4CCC(CC(=O)O)CC4)cc(-c4cc(F)cc(Cl)c4)n3)cn2)CC1", "note": "[Example 374, 2-(1-((2-(3-chloro-5-fluorophenyl)-6-((2-(4-methyl-1,4-diazepan-1-yl)pyrimidin-5-yl)oxy)pyridin-4-yl)methyl)piperidin-4-yl)acetic acid]", "values": [
      {"measurement": "inhibition at 1 µM", "setting": "dengue virus (DENV)", "result": 38.5, "unit": "%"},
      {"measurement": "inhibition at 1 µM", "setting": "[1]", "result": 17.6, "unit": "%"},
      {"measurement": "inhibition at 1 µM", "setting": "Marburg virus (MARV)", "result": 48.6, "unit": "%"}
    ]},
    {"smiles": "CN1CCN(c2ncc(Oc3cc(-c4cc(Cl)cc(Cl)c4)cc(CN4CCC(CC(=O)O)CC4)c3F)cn2)CC1", "note": "[Example 376, 2-(1-((3′,5′-dichloro-4-fluoro-5-((2-(4-methylpiperazin-1-yl)pyrimidin-5-yl)oxy)-[1,1′-biphenyl]-3-yl)methyl)piperidin-4-yl)acetic acid]", "values": [
      {"measurement": "inhibition at 1 µM", "setting": "dengue virus (DENV)", "result": 0, "unit": "%"},
      {"measurement": "inhibition at 1 µM", "setting": "[1]", "result": 13.5, "unit": "%"},
      {"measurement": "inhibition at 1 µM", "setting": "Marburg virus (MARV)", "result": 12.7, "unit": "%"}
    ]},
    {"smiles": "CN1CCN(c2ncc(Oc3nc(-c4cc(Cl)cc(Cl)c4)cc(CN4CCC(CC(=O)O)CC4)c3F)cn2)CC1", "note": "[Example 379, 2-(1-((6-(3,5-dichlorophenyl)-3-fluoro-2-((2-(4-methylpiperazin-1-yl)pyrimidin-5-yl)oxy)pyridin-4-yl)methyl)piperidin-4-yl)acetic acid]", "values": [
      {"measurement": "inhibition at 1 µM", "setting": "dengue virus (DENV)", "result": 35.2, "unit": "%"},
      {"measurement": "inhibition at 1 µM", "setting": "[1]", "result": 41.5, "unit": "%"},
      {"measurement": "inhibition at 1 µM", "setting": "Marburg virus (MARV)", "result": 51.2, "unit": "%"}
    ]}
  ]
}
